# Measured values: PMC10610214 (Pharmaceuticals, 2023)
# Tests used:
# [1] = test system: NO in BV2 cells; experiment: NO production in LPS-stimulated BV2 cells (Griess); type: cell-based; conditions: Mus musculus, BV-2, 24 h, read-out: NO inhibition IC50
# Procedure: The cytotoxicity of compounds on BV2 cells were evaluated by MTT assay and similar to those described in Section 2.5. The NO concentrations in medium were determined using Griess Reagent assay (Beyotime) in accordance with a previously reported method. Nitrite is reduced to nitrogen oxide using Griess Reagent I. Nitrogen oxide then reacts with Griess Reagent II forming a stable product that can be detected by its absorbance at […]. The two-step assay is simple, fast, and can detect nitrite levels as low as 1 nmol/well. BV2 cells were seeded into a 48-well plate at a density of 6.0 × 10^4 cells per well. After the cells were incubated overnight, the old medium was discarded. Then, the cells were pretreated with various concentrations (10, 5, 1, 0.5, and 0.1 μM) of compounds for 1 h and then co-incubated with LPS (1 μg/mL, 30 μL/well) for 24 h. After 24 h, the cell supernatant (50 μL/well) was placed into a new 96-well plate for experiment. […] The absorbance at […] was measured by a microplate reader.
# [2] = test system: P-gp (MDR1); experiment: in vitro; type: in vitro ADME; conditions: dog, MDCK-MDR1, MDCKII-MDR1
# Procedure: (§1) Specifically, MDCKII-MDR1 cells (1 × 10^5 cell/cm^2) were seeded on polyester 12-well Transwell inserts (pore size: […], diameter: 12 mm, apical volume: 0.5 mL, basolateral: volume 1.5 mL) and cultured for 5–7 days to reach full differentiation as per TEER readings > 250 Ω·cm. […] After an incubation time of 2 h, samples were removed from the apical and basolateral side of the monolayer and were stored at −80 °C until further analysis.
# (§2) The Papp was calculated according to the following equation (units of cm/s):(1) Papp=Va/area×time×Drugacceptor/Druginitial where “Va” is the volume in the acceptor well, “time” is the total transport time, “area” is the surface area of the membrane, “[Drug]initial” is the initial drug concentration in the AP or BL chamber, and “[Drug]acceptor” is the concentration of the drug in the acceptor chamber.
# (§3) The ER was calculated using the following equation:ER = Papp, BL-AP/Papp, AP-BL(2) where “Papp, BL-AP” is the apparent permeability of basal-to-apical transport, and “Papp, AP-BL” is the apparent permeability of apical-to-basal transport.
# [3] = test system: MDCKII-MDR1 cells; experiment: in vitro; type: in vitro ADME; conditions: efflux ratio
# Procedure: as §1, §2, §3
# [4] = target: T1, AChE (Electrophorus electricus, UniProt O42275); experiment: Kinetic study of AChE inhibition (Lineweaver–Burk); type: biochemical
# T1 construct: AChE (from electric eel); purchased Sigma Chemical Company (St. Louis, MO, USA)
# T1 sequence (O42275 24-633): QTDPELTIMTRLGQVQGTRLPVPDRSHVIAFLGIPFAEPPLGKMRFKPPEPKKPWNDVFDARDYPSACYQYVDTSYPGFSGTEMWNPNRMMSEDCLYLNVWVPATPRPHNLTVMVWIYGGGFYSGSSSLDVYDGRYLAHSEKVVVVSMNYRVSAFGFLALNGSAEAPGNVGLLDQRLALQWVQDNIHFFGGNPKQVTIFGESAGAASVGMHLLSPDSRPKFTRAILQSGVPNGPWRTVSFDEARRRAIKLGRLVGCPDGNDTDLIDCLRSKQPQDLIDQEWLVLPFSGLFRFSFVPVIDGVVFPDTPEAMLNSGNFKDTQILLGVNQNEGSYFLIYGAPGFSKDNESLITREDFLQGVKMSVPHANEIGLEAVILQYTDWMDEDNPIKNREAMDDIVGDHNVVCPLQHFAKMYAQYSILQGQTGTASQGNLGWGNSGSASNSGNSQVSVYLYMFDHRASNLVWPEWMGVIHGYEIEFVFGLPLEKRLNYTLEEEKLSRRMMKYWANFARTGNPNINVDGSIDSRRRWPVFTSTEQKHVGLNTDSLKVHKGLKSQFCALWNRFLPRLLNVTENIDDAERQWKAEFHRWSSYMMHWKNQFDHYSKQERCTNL
# Procedure: The specific steps are similar to those described in Section 4.3 for the enzyme inhibition assay. In brief, 100 μL of different concentrations of 4h (0, 0.075, 0.15, and 0.3 μM)/4h (0, 3, 6, and 12 μM) and 100 μL of different concentrations of AChE/BuChE (1, 0.5, 0.25, 0.125, and 0.0625 U/mL) were added into 48-well plates and then co-incubated at 37 °C for 30 min. After the end of incubation, 100 μL of ATCI/BTCI (0.35 mM), 100 μL of PB solution, and 100 μL DTNB (0.35 mM) were added, and then changes in absorbance were measured at different times at 412 nm by multifunctional microplate reader, and the catalytic reaction rate of AChE/BuChE was determined. All concentrations are final. With the enzyme reaction rate V as the ordinate and AChE/BuChE concentration as the abscissa, the curve was drawn to determine the reversibility of the compound to AChE/BuChE.
# In order to determination of inhibition types and the constant of AChE/BuChE, the concentration of AChE/BuChE (0.5 U/mL) in the reaction system was fixed. Five different substrate concentrations and four different concentrations of test compound 4h were used to measure the absorbance changes at different times at 412 nm. The reciprocal of the enzymatic reaction rate (1/V) was taken as the ordinate, and the reciprocal of the substrate ATCI/BTCI concentration (1/S) was taken as the abscissa.
# […]. […]
# [5] = test system: COX-2; experiment: COX-2 expression in LPS-stimulated BV2 cells (Western blot); type: cell-based; conditions: 1, 2, 4 μM
# Procedure: BV2 cells were seeded into a 6-well plate at a density of 3.0 × 10^5 cells per well. After incubation overnight, the old medium was discarded. Then, the cells were pretreated with various concentrations (1, 2, and 4 μM) of 4h for 1 h and then co-incubated with LPS (1 μg/mL) for 24 h. After incubation was completed, the cells were washed twice with PBS, and 300 μL of cell lysis buffer (RIRA lysis buffer, phosphatase inhibitor, protease inhibitor, and PMSF) was added to each well. The cells were then incubated on ice for 30 min and centrifuged at 12,000 rpm at 4 °C for 30 min to collect the supernatant. The protein content in the supernatant was detected using the BCA protein detection kit (Beyotime, Shanghai, China). Total proteins were separated by 10% SDS-PAGE and then transferred from the gel to a PVDF membrane (Sigma-Aldrich, Shanghai, China). The membranes were blocked in TBST solution containing 5% skimmed milk for 2 h. Next, the membranes were washed three times (TBST) and incubated with primary antibody dilution (Cell Signaling Technologies, Boston, MA, USA) overnight at 4 °C. Then, they were washed another three times (TBST), incubated with the secondary antibody at room temperature for 90 min, and then washed three times with TBST. The blots were visualized by a chemiluminescence imager (Tanon 5200, Shanghai, China).
# [6] = in vitro; type: in vitro ADME, SD rats; conditions: pH 7.4
# Procedure: The incubation was terminated at different time points by adding 0.5 mL of ice-cold CH3CN. A parallel incubation was performed in the absence of a NADPH-regenerating system with microsomes as the negative control, and the reactions were terminated after the corresponding time incubation. After centrifugation with 12,500 rpm at 4 °C for 10 min, the supernatant was directly analyzed by the HPLC UV systems (Agilent HPLC 1200 instrument). Three independent experiments were performed in triplicate.
smiles,measurement,setting,value
O=C1c2cc(NS(=O)(=O)c3ccccc3F)ccc2-n2c1nc1ccccc1c2=O [4h],IC50,[1],620 ± 70 nM
same,"Papp A→B at 2 h, 75 μM","[2]; apical-to-basal, 2 h",18.1 ± 2.7 ×10⁻⁶ cm/s
same,"Papp B→A at 2 h, 75 μM","[2]; basal-to-apical, 2 h",17.4 ± 2.2 ×10⁻⁶ cm/s
same,"efflux ratio at 2 h, 75 μM","[2]; efflux ratio, read-out: ER Papp BL/Papp AP",0.96
same,ER Papp BL/Papp AP,[3],less than two
same,AChE inhibition type,[4]; Lineweaver–Burk double-reciprocal plot,mixed-type inhibition
same,Ki,[4]; Lineweaver–Burk secondary plot,83.1 nM
same,COX-2 expression,[5],significantly decreased the expression of COX-2 and iNOS
same,K,"[6]; SD, rat, 100 μM",0.00574 ± 0.00037 min⁻¹
same,half-life at 100 μM,[6]; SD rat liver microsomes,1.8 ± 0.0817 h
